Measurements taken from ChEMBL document CHEMBL3217605, “Synthesis, microbial transformation, and pharmacological evaluation of 4,5-dihydronaphtho[2,1-b]furan-2-ones and related analogues” (Medchemcomm, 2013).
Calls of active or inactive are those of the source. The rule behind the calls is not given here.

Columns and labels:
MDA-MB-231 [1] = test: Cytotoxicity against human MDA-MB-231 cells at 10 to 30 uM; type: cell-based; settings: mda-mb-231, 30 µM
MDA-MB-231 [2] = test: Antimigratory activity against human MDA-MB-231 cells assessed cell migration level at 30 uM by wound healing assay; type: functional
MDA-MB-231 [3] = test: Antimigratory activity against human MDA-MB-231 cells assessed cell migration level at 10 uM by wound healing assay; type: functional
MDA-MB-468 = test: Growth inhibition of human MDA-MB-468 cells assessed as cell growth at 10 uM after 48 hrs by SRB assay; type: functional; settings: MDA-MB-468, 48 h, read-out: Activity
T47D = test: Growth inhibition of human T47D cells assessed as cell growth at 10 uM after 48 hrs by SRB assay; type: functional; settings: read-out: Activity
MCF7 = test: Growth inhibition of human MCF7 cells assessed as cell growth at 10 uM after 48 hrs by SRB assay; type: functional; settings: MCF7, 48 h, read-out: Activity
[4] = Growth inhibition of human UACC62 cells assessed as cell growth at 10 uM after 48 hrs by SRB assay; type: functional; settings: UACC-62, 48 h, read-out: Activity
SK-MEL-5 = test: Growth inhibition of human SK-MEL-5 cells assessed as cell growth at 10 uM after 48 hrs by SRB assay; type: functional; settings: SK-MEL-5, 48 h, read-out: Activity
M14 = test: Growth inhibition of human M14 cells assessed as cell growth at 10 uM after 48 hrs by SRB assay; type: functional; settings: M14, 48 h, read-out: Activity
Malme-3M = test: Growth inhibition of human MALME-3M cells assessed as cell growth at 10 uM after 48 hrs by SRB assay; type: functional; settings: read-out: Activity
PC-3 = test: Growth inhibition of human PC3 cells assessed as cell growth at 10 uM after 48 hrs by SRB assay; type: functional; settings: PC-3, 48 h, read-out: Activity
RPMI-8226 = test: Growth inhibition of human RPMI8226 cells assessed as cell growth at 10 uM after 48 hrs by SRB assay; type: functional; settings: RPMI-8226, 48 h, read-out: Activity
K562 = test: Growth inhibition of human K562 cells assessed as cell growth at 10 uM after 48 hrs by SRB assay; type: functional; settings: K562, 48 h, read-out: Activity
HL-60(TB) = test: Growth inhibition of human HL-60(TB) cells assessed as cell growth at 10 uM after 48 hrs by SRB assay; type: functional; settings: HL-60, 48 h, read-out: Activity
[5] = Growth inhibition of human NCI60 cells assessed as mean cell growth at 10 uM after 48 hrs by SRB assay; type: functional; design: scale not given: the % may be the effect or the level left
Microglia [6] = test: Anti-neuroinflammatory activity in LPS-induced activated rat Microglia cells assessed as reduction in TXB2 release at 10 uM; type: functional
Microglia [7] = test: Anti-neuroinflammatory activity in LPS-induced activated rat Microglia cells assessed as reduction in super oxide anion radical generation at 10 uM; type: functional
[8] = Toxicity in LPS-induced activated rat Microglia cells assessed as LDH release at 0.1 to 10 uM
[9] = Anti-neuroinflammatory activity in LPS-induced activated rat Microglia cells assessed as reduction in TXB2 release; type: functional
[10] = Toxicity in LPS-induced activated rat Microglia cells assessed as LDH release at 10 uM
[11] = Anti-neuroinflammatory activity in LPS-induced activated rat Microglia cells assessed as reduction in super oxide anion radical generation; type: functional

Compound | Activity (MDA-MB-231 [1]) | Activity (MDA-MB-231 [2]) [%] | Activity (MDA-MB-231 [3]) [%] | inhibition (Microglia [6]) | inhibition (Microglia [7]) | Activity [8] | also measured
COc1ccc2c(c1)C1=C(C)C(=O)OC1CC2 (centres undefined) | Non-toxic | 47.8 | 71.4 | inactive | inactive | Non-toxic | growth at 10 µM (MDA-MB-468): 40.8%; growth at 10 µM (T47D): 64.3%; growth at 10 µM (MCF7): 65.2%; growth at 10 µM [4]: 57.1%; growth at 10 µM (SK-MEL-5): 65.8%; growth at 10 µM (M14): 63.7%; growth at 10 µM (Malme-3M): 35.4%; growth at 10 µM (PC-3): 43%; growth at 10 µM (RPMI-8226): 20.7%; growth at 10 µM (K562): 54.2%; growth at 10 µM (HL-60(TB)): 74.2%; Activity [5]: 73.9%
COc1ccc2c(c1)C1=C(c3ccccc3)C(=O)OC1C[C@H]2O (some centres undefined) | Non-toxic | 45.9 | 54.4 | inactive | inactive | Non-toxic | –
COc1ccc2c(c1)C1=C(c3ccccc3)C(=O)OC1CC2 (centres undefined) | Non-toxic | 53.2 | 76.7 | – | inactive | Non-toxic | growth at 10 µM (MDA-MB-468): 27.4%; growth at 10 µM (T47D): 30.9%; growth at 10 µM (MCF7): 59.5%; growth at 10 µM [4]: 35.4%; growth at 10 µM (SK-MEL-5): 48.7%; growth at 10 µM (M14): 64.9%; growth at 10 µM (Malme-3M): 35.9%; growth at 10 µM (PC-3): 32%; growth at 10 µM (RPMI-8226): 18.1%; growth at 10 µM (K562): 42.1%; growth at 10 µM (HL-60(TB)): 53%; Activity [5]: 65.7%; IC50 [9]: 1000 nM
COc1ccc2c(c1)[C@@H]1[C@H](CC2)OC(=O)[C@@H]1c1ccccc1 (relative stereo) | Non-toxic | 48.4 | 90.7 | inactive | inactive | Non-toxic | –
COc1ccc2c(c1)C1=C(CO)C(=O)OC1CC2 (centres undefined) | Non-toxic | 61 | 81.8 | inactive | inactive | Non-toxic | –
COc1cccc2c1CC[C@@H]1OC(=O)[C@H](C)[C@H]21 | Non-toxic | 68.4 | 87.6 | inactive | inactive | Non-toxic | –
COc1ccc2c(c1)[C@@H]1[C@H](CC2)OC(=O)[C@H]1c1ccccc1 (relative stereo) | Non-toxic | 45.7 | 100 | inactive | inactive | Non-toxic | –
COc1cccc2c1CCC1OC(=O)C(C)=C21 (centres undefined) | – | – | – | – | – | – | Activity [10]: Toxic
NC(=O)Cc1ccccc1 | Non-toxic | 70.4 | 94.5 | inactive | inactive | Non-toxic | –
C=CCN1C(=O)C(c2ccccc2)=C2c3cc(OC)ccc3CCC21 (centres undefined) | Non-toxic | 32.9 | 47.8 | inactive | inactive | Non-toxic | growth at 10 µM (MDA-MB-468): 36.3%; growth at 10 µM (T47D): 40.7%; growth at 10 µM (MCF7): 61.5%; growth at 10 µM [4]: 35.3%; growth at 10 µM (SK-MEL-5): 40.9%; growth at 10 µM (M14): 46.7%; growth at 10 µM (Malme-3M): 0.19%; growth at 10 µM (PC-3): 25.7%; growth at 10 µM (RPMI-8226): 11.5%; growth at 10 µM (K562): 28.3%; growth at 10 µM (HL-60(TB)): 34.9%; Activity [5]: 59.8%; IC50 [11]: 1000 nM; IC50 [9]: 1000 nM
COc1ccc2c(c1)C1=C(C)C(=O)OC1C[C@H]2O (some centres undefined) | Non-toxic | 42.5 | 51.6 | inactive | inactive | Non-toxic | –
